Several values for one entry are separate records, joined by “and”; a condition that tells them apart may be missing. Equal values may be shown once.
What was measured:
normal human T-cells [1] = assay: Membrane potential measurement by flow cytometry, human T-cells; type: cell-based; details: DPAT 10^−8 M
Procedure: (§1) Membrane potential measurements by flow cytometry: Purified normal human or mouse antigen-specific T-cells were incubated in serum-free medium (RPMI, ˜1×10^6/ml, 1 hr, 37° C., 10% CO2 humidified incubator) to assure steady state conditions. The cells were then washed, resuspended in normal RPMI, distributed into individual tubes (˜1×10^6/tube), added with 300 nM di-BA-C4(3) oxanol dye (Molecular Probes, Inc., Eugene, Oreg., USA), and 5-15 minutes later added with DPAT (10^−8 M). Alternatively, the human T-cells were resuspended either in normal RPMI, or in rich K^+ RPMI solutions, incubated for 30 min (37° C., 10% CO2), and loaded with 300 nM di-BA-C4(3) oxanol dye. The cell fluorescence was analyzed on the FACSORT at 488 nm.

normal human T-cells [2] = assay: Proliferation of resting normal human T-cells (CyQuant); type: cell-based; details: 48 hours
Procedure: FIGS. 18A-C depict the proliferation of resting normal human and cultured Jurkat T-cells induced by physiological concentrations of DPAT. […] Numbers of T-cells were evaluated using the CyQuant cell proliferation assay kit (Molecular Probes), according to the manufacturer instructions. FIG. 18A represents a calibration of the CyQuant cell kit, showing the linear relationship between the fluorescent intensity and untreated human T-cell number. Note the similar maximal enhancement of T-cell proliferation with 10^−10M DPAT in purified normal human (18B) and cultured Jurkat T-cells (FIG. 18C).

IL-10 secretion = IL-10 secretion by human peripheral T-cells (sandwich ELISA); type: cell-based; details: agonist 10^−7 M, 72 hours
Text: The results are expressed as pg/ml IL-10. […] Immunostaining is with intracellular anti-IL-10 FITC conjugated (FL-1) and anti-CD4 PE conjugated (FL-2) antibodies, as described in Materials and Methods hereinbelow.
The results are expressed as pg/mi.
(§2) The results are expressed as pg/ml.
as §2, §2

[3] = tested on: mouse antigen-specific (MBP87-99) T-cells; assay: Membrane potential measurement by flow cytometry, mouse antigen-specific T-cells; type: cell-based; details: DPAT 10^−8 M; di-BA-C4(3) oxanol dye
Procedure: as §1

[4] = tested on: Bomapin (protease inhibitor 10, PI 10); assay: RT-PCR analysis of Bomapin mRNA in peripheral T-cells; type: cell-based, human; details: DPAT 10 nM; not shown
[5] = tested on: SJL/J anti PLP 139-151 T-cells; assay: Experimental autoimmune encephalomyelitis (EAE) induced by encephalitogenic T-cells treated ex vivo; type: in vivo, mouse
[6] = tested on: oxazalone-sensitized T-cells; assay: Passively transferred delayed type hypersensitivity (DTH) with T-cells treated ex vivo; type: in vivo, mouse
Procedure: Lymph nodes were removed from oxazalone-sensitized mice, and the T-cell suspension was exposed ex-vivo to increasing concentrations of DPAT (FIG. 9A, DPAT […]-DPAT 10^−6M) as described for FIG. 8 hereinabove. Control T-cells were incubated with medium only (untreated T-cells). The T-cells were then washed, resuspended in PBS and injected intravenously into naive syngeneic mice. The ears of the recipient mice were than challenged with oxazalone, and the degree of ear swelling was measured by micrometer 24 hr later. DTH is expressed as the mean ±SD of ear swelling in units of 10^−2 mm. […] Oxazalone-sensitized T-cells were incubated ex vivo for one hour with either DPAT (10^−8 M, +DPAT) or U-Mal (10^−7 M, +U-Mal), or both. The T-cells were then washed, resuspended in PBS, injected intravenously into normal recipients, and DTH measured as described hereinabove. […] FIGS. 9A and 9B represent two individual experiments, each experimental group consisting of 8 mice.
Passively transferred delayed type hypersenisitivity (DTH): Groups of 6-8 BALB/c female mice (The Jackson Laboratory, Bar Harbor, Mass., USA) were sensitized on the abdominal skin with 200 μt of 2% oxazalone dissolved in acetone/olive oil [4:1 vol/vol)] applied topically. Five days later, lymph nodes were removed from the sensitized mice, and a cell suspension prepared. The cells (3-5×10^6/ml in RPMI, no additional supplements) were than added for […] incubation ([…]. 37° C., 10% CO2 humidified incubator) with either DPAT, U-Mal, or both (in the latter combination the antagonist added 5 minutes before the agonist). The cells were than washed, resuspended in PBS, and injected IV (40×10^6 /mouse) into normal BALB/c recipients. Immediately afterwards the recipient mice were […] with 10 μl of 2% oxazalone in acetone/olive oil, applied topically to each side of the ear. A constant area of the ear was measured immediately before challenge and 24 hr after the challenge with a Mitutoyo engineer's micrometer. The individual measuring the ear swelling was unaware of the identity of the mice groups. The DTH reaction is expressed as the mean±SD (for each group) of the increment of ear swelling 24 hours after inoculation of the oxazalone-sensitized T-cells, in units of 10^−2 mm.

normal human T-cells [7] = assay: T-cell adhesion assay (adhesion of human T-cells to fibronectin)
Procedure: T-cell adhesion assay: In the majority of the experiments, adhesion of purified normal human T-cells to fibronectin was assayed with radioactively labeled T-cells as follows: normal human T-cells, purified from a fresh blood sample, were labeled with Na2[^51CrO4], washed, and resuspended in adhesion medium (RPMI-1640 supplemented with 2% BSA, 1 mM Ca^++, 1 mM Mg^++, 1% sodium pyruvate, 1% glucose, and 1% HEPES buffer). The cells were then pre-treated (30 min., 37° C.) with DPAT, and added to fibronectin coated (1 μg/well; Sigma Chemicals, St. Louis, Mo.) microtiter flat-bottomed 96 well plates (1×10^5 cells/100 μl/well). The plates were placed in a humidified incubator (37° C., 30 min., 10% CO2), and than washed thoroughly several times with PBS, to remove non-adherent T-cells. The adherent T-cells were lysed with 1% Tween 20 in 1N NaOH, and the radioactivity in the resulting supernatants was determined in a γ-counter. For each experimental group, results were expressed as the mean CPM±SD of bound T-cells from quadruplicate wells. DPAT-treated T-cell adhesion to BSA-(rather than fibronectin) coated wells, and untreated T-cell adhesion to fibronectin coated wells, were the standard negative controls.
Non-radioactive T-cell adhesion assays: Alternatively, T-cell adhesion assays were performed with non-radioactively labeled cells, differing from the above protocol only in the final detection steps which were performed as follows: After the final washing of the adhesion plates and removal of the non adherent cells, the microtiter wells were supplemented with lysis and substrate solution (60 μl/well of: 0.5% Triton X-100 in water mixed with an equal volume of 7.5 mM p-nitrophenol-N-acetyl-β-D-glucosaminide, (Sigma Chemicals, St. Louis, Mo.) in 0.1M citrate buffer pH=5.0). The plates were then incubated (˜18hr) in a CO2-free 37° C. incubator, supplemented with stop solution (90 μl/well of 50 mM glycine, (Sigma Chemicals, St. Louis, Mo.) pH=10.4 containing 5 mM EDTA), and the optical density was measured at 405 nm in a standard Elisa reader.

[8] = tested on: resting human peripheral T-cells; assay: Gene expression, Atlas human cDNA expression array; type: cell-based; details: DPAT 10 nM, 24 hours
Procedure: Poly A+RNA was extracted from human T-lymphocytes before and after treatment with 10 nM DPAT for 24 hours, using the Atlas Pure Total RNA Labeling System (Clontech Laboratories, Inc. Palo Alto, Calif.) according to manufacturers recommendations. […] Hybridizations to the Atlas Human cDNA Expression Arrays membranes (Catalog No. 1.2 KIII (7850-1) and III (7855-1), Clontech Laboratories) were performed by Clonetech Laboratories, as described in the user manual, and the expression pattern of up and down regulated genes was visualized by autoradiography.
Poly A+ RNA was prepared from both DPAT- treated and untreated cells and reverse transcribed to ^32P-labeled cDNA. Using an Atlas human cDNA expression array (i.e. a positively charged nylon membrane spotted with 1200 different human cDNAs) for identification of effected genes, the reverse transcribed products were characterized by hybridization to the atlas membranes. The differential pattern of expression between untreated cells and DPAT-treated cells was visualized by autoradiography, and quantified by densitometry. (FIGS. 20A and 20B). […] This member of the ovalbumin family of serine protease inhibitors is expressed at elevated levels in patients with acute myeloid leukemia and chronic myelomonocytic leukemia, inhibits TNF alpha-induced cell death, and has been linked to the regulation of protease activities in early hematopoiesis (Riewald, M et al Blood 1998;91:1256-62 and Schleef R R and Chuang T L J Biol Chem 2000;275:26385-9).

## CCCN(CCC)C1CCc2ccc(O)cc2C1 (stereo not drawn) [DPAT, 7-Hydroxy-DPAT]
Normal human T-cells [1]
  level of depolarization, comparable extracellular K^+ concentration: ~20 mM
Normal human T-cells [1]; di-BA-C4(3) oxanol dye
  depolarization of normal human T-cells: clear depolarization
Normal human T-cells [1]; from a resting potential of ˜48 mV
  shift of membrane potential: ~6 mV
Normal human T-cells [2]
  DPAT concentration of maximal enhancement of proliferation, normal human T-cells: 10^−10 M
Normal human T-cells [2]; DPAT 10^−8 M to 10^−10 M
  proliferation of normal human T-cells relative to untreated cells: up to 5 times that of untreated cells
IL-10 secretion
  induction of IL-10 secretion by receptor-specific Dopamine agonists: induced by the D2 and D3
[3]
  depolarization of mouse antigen specific T-cells: clear depolarization
[4]
  abundance of Bomapin transcripts: increased abundance of Bomapin transcripts
[5]; T-cells incubated 1 hour with DPAT 10^−8 M ex vivo, IV into naive SJL/J mice, documented 5-12 days later
  severity of EAE in recipient mice: significantly reduced the severity
[5]; mice injected with DPAT-treated T-cells, four independent experiments
  percentage of mice developing EAE, individual experiments: 83% and 60% (2×) and 80%
[5]; mice injected with DPAT-treated T-cells, p<0.01 vs untreated T-cells
  percentage of mice developing EAE, mean of four experiments: 70%
[6]; DPAT 10^−8 M ex vivo, 1 hr, ear swelling 24 hr after challenge
  DTH (ear swelling) caused by oxazalone-sensitized T-cells: significantly reduced
[6]; DPAT concentrations other than 10^−8 M
  DTH suppression at higher and lower concentrations: either less or not at all effective
[6]; DPAT ex vivo, ear swelling 24 hr after challenge
  reduction of DTH: > 60%
Normal human T-cells [7]; DPAT 10 nM, BSA- instead of fibronectin-coated wells (negative control)
  DPAT-treated T-cell adhesion to BSA-coated wells: < 6%
Normal human T-cells [7]; DPAT 10^−8 M, washed before seeding
  adhesion when T-cells or fibronectin-coated wells were transiently exposed to DPAT: significant adhesion of T-cells to fibronectin was evident only if the T-cells
Normal human T-cells [7]; dose dependence, human T-cells
  optimum concentration for induction of T-cell adhesion to fibronectin: 10 nM
[8]
  down-regulation of gene expression: down-regulated the expression of others
  expression of Lupus LA protein and Cathepsin E precursor: induced expression of Lupus LA protein and Cathepsin E precursor
  expression of the serine protease inhibitor Bomapin: induction of expression
  over expression of mRNA (upregulated genes): induced the over expression of mRNA encoding for several genes
